The text below walks through data of patent publication US20010051631A1, “Tricyclic compounds, their production and use” (priority 1994, published 2001).

For data set [1], the system named is spontaneously hypertensive rats (SHRs). Briefly: Antihypertensive action in spontaneously hypertensive rats (SHRs). Type of data set: in vivo, rat. As to conditions: SHR, oral. As to the method:
Method: Male SHR at ages ranging from 20 to 24 weeks were anesthetized with pentobarbital.sodium (50 mg/kg, i.p.) and, from the femoral artery of each animal, a polyethylene tube was inserted. The polyethylene tube was connected to a pressure transducer and blood pressure after oral administration of drugs was recorded continuously under non-anesthesia. The animals, after the operation, were allowed to freely access to drinking water and eating, until administration of the drugs. The compounds were all orally administered as a suspension in gum arabic (2 ml/kg).

For another data set, the system named is PDGF-induced contraction. Briefly: Inhibitory effects on the contraction due to PDGF (isolated thoracic aorta strips). On the set-up: species or system stroke prone spontaneously hypertensive rats. The conditions noted are these: 1.7 nM PDGF-AB, drug added 30 minutes before. As to the method:
Method: The thoracic aorta of stroke prone spontaneously hypertensive rats at ages ranging from 16 to 36 weeks were isolated, and strip (2 mm in width, 2 cm in length) were prepared from the aorta. Each strip was mounted in 10 ml of an organ bath, which was loaded at 2 g and allowed to stabilized for 2 to 3 hours. As the nutrient, a Krebs-Henseleit solution, bubbled with a mixture gas (95% O2, 5% CO2), was used. At the time when the contraction response against 60 mM KCl becomes constant, each strip was applied by 1.7 nM of PDGF-AB (Cosmobio Inc.) for contraction. Observation was continued until the contraction become maximum and stable (30 to 40 minutes after application of PDGF-AB). Then, the strips were washed, and, in about one hour later (after the tone of the vaso-contraction was recovered to the original level), 10 μl of the drug (DMSO solution) was added. Thirty minutes after drug, 1.7 nM of PDGF-AB was added again and subjected to observation until the contraction became maximum. The PDGF-AB-induced contraction was isometrically recorded on a polygraph (Nihon Denki San-ei). From the contractile response of the strips to PDGF-AB in the absence or presence of drugs, % inhibition of each drug was calculated. IC50 value for the inhibitory effects was calculated in accordance with the Filler's theorem using the least squares method.

Another data set has as its system 5/6 nephrectomized rats. Briefly: Antiproteinuric effect in 5/6 nephrectomized rats. Type of data set: in vivo, Sprague Dawley rats. The method, then: Method: Male Sprague Dawley rats of five-week old (Japan Clea) were anesthetized with pentobarbital.sodium (50 mg/kg, i.p.), and the right kidney was excised by dorsal incision, and its two-thirds were cut. Two weeks later, the whole of left kidney was removed. In the Sham group, only the second operation was performed. In two weeks after the second operation, urine was collected for 24 hours under drinking water ad libitum. Urinary albumin and total protein were quantitatively determined by the use of A/G B-test (Wako). On the following day of collecting urine, the blood pressure was measured by the tail cuff method. Test animals showing more proteinuria than that of Sham group were selected. Based on the amount of the proteinuria and the blood pressure level, the animals were grouped so that, the average and distribution of urinary protein and blood pressure same in each group. The drug was suspended in gumarabic/water or dissolved in water, and orally administered once a day for 6-8 weeks in a volume of 2 ml/kg. The administration was consecutively performed, and, at 2, 4, 6 and 8th weeks of treatment, urine was collected and blood pressure was measured. The vehicle group was orally administered with only water at a dose of 2 ml/kg.

In the next data set the test system is hamsters. Put plainly: Cholesterol lowering effects in hamsters. Type of data set: in vivo, Syrian hamsters. The method, then: Method: Syrian hamsters of 10 weeks old were stabilized with common feed for two weeks. The animals were grouped based on the total cholesterol in blood. The vehicle (water) or drug was orally administered in a volume of 2 ml/kg for two weeks. During the period of the administration, blood was collected from retinal vessels with passage of time and the total cholesterol and triglyceride in blood were determined. On the other hand, blood was collected from abdominal aorta on the second week after the consecutive administration of the test compounds to determine the total cholesterol, triglyceride and HDL (high density lipid)-cholesterol in blood. Cholesterol C-test, triglyceride G-test and HDL-cholesterol E test (all manufactured by Wako Pure Chemical Industries, Ltd.) were used for the determination of these parameters, respectively.

Where [2] appears, read: 10 mg/kg oral once a day, 0 weeks.
Where [3] appears, read: 10 mg/kg oral once a day, 2 weeks.
The mark [4] stands for this setting: 10 mg/kg oral once a day, 4 weeks.
[5] abbreviates: 10 mg/kg oral once a day, 6 weeks.
Setting [6] is: 10 mg/kg oral once a day, 8 weeks.
Where [7] appears, read: 3 mg/kg oral once a day, 0 weeks.
The mark [8] stands for this setting: 3 mg/kg oral once a day, 2 weeks.
The mark [9] stands for this setting: 3 mg/kg oral once a day, 4 weeks.
The mark [10] stands for this setting: 3 mg/kg oral once a day, 6 weeks.
Where [11] appears, read: 3 mg/kg oral once a day, 8 weeks.

“1,2-Dihydro-3-methyl-1-[4-[(2,2,2-trifluoro)ethanesulfonamido]butan-1-yl]-1,4,7b-triazacyclopent[cd]inden-2-one.hydrochloride [Example 38]”: the blood-pressure change in data set [1] (30 mg/kg, after 4 hrs.) is −19 [after 4 hrs.] mmHg.
Turning to `Cc1ncc2ccc3n(CCCCCNS(=O)(=O)CC(F)(F)F)c(=O)c1n23.Cl` [Example 27, 1,2-Dihydro-3-methyl-1-[5-[(2,2,2-trifluoro)-ethanesulfonamido]pentan-1-yl]-1,4,7b-triazacyclopent[cd]inden-2-one.hydrochloride], the blood-pressure change in data set [1] (30 mg/kg, after 7 hrs.) was −17 [after 7 hrs.] mmHg.
On the same count and under the same terms, the value for “1,2-Dihydro-3-methyl-1-[3,3-dimethyl-5-(trifluoromethanesulfonamido)pentan-1-yl]-1,4,7b-triazacyclopent[cd]inden-2-one.hydrochloride [Example 40]” was −20 [after 7 hrs.] mmHg.
In turn, `Cl.O=C1c2cnc3cccc(n23)CN1CCCCNS(=O)(=O)C(F)(F)F` [Example 6, 4,5-Dihydro-4-[4-(trifluoromethanesulfonamido)butan-1-yl]-3H-1,4,8b-triazaacenaphthylen-3-one.hydrochloride] had an IC50 in the data set with PDGF-induced contraction of 1270 nM. In data set [1] (10 mg/kg, after 4 hrs.), the blood-pressure change was −19 [after 4 hrs.] mmHg. Besides, the Urinary albumin excretion came out at 6.8 mg/day in the data set on 5/6 nephrectomized rats (setting [2]); 13.5 mg/day with 5/6 nephrectomized rats (setting [3]); 17.2 mg/day in the data set with 5/6 nephrectomized rats (setting [4]); 13.1 mg/day with 5/6 nephrectomized rats (setting [5]); 24.8 mg/day with 5/6 nephrectomized rats (setting [6]). In addition, the Urinary protein excretion in the data set with 5/6 nephrectomized rats (setting [2]) is 114.1 mg/day; with 5/6 nephrectomized rats (setting [3]), 103.0 mg/day; with 5/6 nephrectomized rats (setting [4]), 93.9 mg/day; in the data set on 5/6 nephrectomized rats (setting [5]) it was 167.2 mg/day; with 5/6 nephrectomized rats (setting [6]), 117.3 mg/day. Further, the “TC (total cholesterol in blood), % of Vehicle” value in the data set with hamsters (10 mg/kg oral for two weeks) is 89.5 % of Vehicle. For the same compound, the “TC-HDL ([total cholesterol value]-[HDL-cholesterol value]), % of Vehicle” value (“TC-HDL … % of Vehicle” for short) in the data set with hamsters (10 mg/kg oral for two weeks) is 84.6 % of Vehicle.
In the data set with PDGF-induced contraction, `Cc1nc2cccc3n2c1CN(CCCCNS(=O)(=O)C(F)(F)F)C3.Cl.Cl` [Example 3, 4,5-Dihydro-2-methyl-4-[4-(trifluoromethanesulfonamido)butan-1-yl]-3H-1,4,8b-triazaacenaphthylene.dihydrochloride] gave a concentration for half-maximal inhibition (IC50) of 290 nM. Besides, in the data set on hamsters (10 mg/kg oral for two weeks), the “TC (total cholesterol in blood), % of Vehicle” value is recorded as 82.2 % of Vehicle and the “TC-HDL … % of Vehicle” value is recorded as 79.0 % of Vehicle.
Regarding `CC(C)(C)OC(=O)NCCCCn1c(=O)c2cccc3ncc(c1=O)n32` [Example 17, 4,5-Dihydro-4-[4-(tert-butoxycarbonylamino)butan-1-yl]-3H-1,4,8b-triazaacenaphthylene-3,5-dione], the melting point lay within 118 to 119 °C.
On to “1,2-Dihydro-3-methyl-1-[6-(trifluoromethanesulfon-amido)hexan-1-yl)-1,4,7b-triazacyclopent[cd]inden-2-one.hydrochloride [Example 28]”, for which, in data set [1] (30 mg/kg, after 3 hrs.), the blood-pressure change is −13 [after 3 hrs.] mmHg. For the same compound, in the data set on hamsters (30 mg/kg oral for two weeks), the “TC (total cholesterol in blood), % of Vehicle” value is given as 65.1 % of Vehicle and the “TC-HDL … % of Vehicle” value is on record as 61.6 % of Vehicle.
For `Cl.O=c1c2cccc3ncc(c(=O)n1CCCCNS(=O)(=O)C(F)(F)F)n32` [Example 11, 4,5-Dihydro-4-[4-(trifluoromethanesulfonamido)butan-1-yl]-3H-1,4,8b-triazaacenaphthylene-3,5-dione.hydrochloride], the blood-pressure change in data set [1] (30 mg/kg, after 7 hrs.) was −31 [after 7 hrs.] mmHg. In addition, the Urinary albumin excretion in the data set with 5/6 nephrectomized rats (setting [2]) worked out at 10.2 mg/day; in the data set with 5/6 nephrectomized rats (setting [3]), 19.8 mg/day; in the data set with 5/6 nephrectomized rats (setting [4]), 30.3 mg/day; in the data set with 5/6 nephrectomized rats (setting [5]), 26.0 mg/day; in the data set on 5/6 nephrectomized rats (setting [6]), 38.3 mg/day. The Urinary protein excretion in the data set on 5/6 nephrectomized rats (setting [2]) was determined as 115.1 mg/day; with 5/6 nephrectomized rats (setting [3]), 69.1 mg/day; with 5/6 nephrectomized rats (setting [4]), 62.5 mg/day; in the data set with 5/6 nephrectomized rats (setting [5]) it was 170.3 mg/day; in the data set with 5/6 nephrectomized rats (setting [6]), 125.4 mg/day.
As to “1,2-Dihydro-3-methyl-1-[4-(methoxycarbonylamino)butan-1-yl]-1,4,7b-triazacyclopento[cd]inden-2-one.hydrochloride [Example 37]”, the blood-pressure change in data set [1] (30 mg/kg, after 5 hrs.) was −14 [after 5 hrs.] mmHg.
Compound `Cl.Cl.O=S(=O)(NCCCCN1Cc2cccc3ncc(n23)C1)C(F)(F)F` [Example 1, 4,5-Dihydro-4-[4-(trifluoromethanesulfonamido)butan-1-yl]-3H-1,4,8b-triazaacenaphthylene.dihydrochloride] returned an IC50 in the data set with PDGF-induced contraction of 2130 nM. Also, the blood-pressure change in data set [1] (10 mg/kg, after 5 hrs.) was −21 [after 5 hrs.] mmHg. The Urinary albumin excretion in the data set on 5/6 nephrectomized rats (setting [7]) was determined as 11.2 mg/day; in the data set on 5/6 nephrectomized rats (setting [8]), 16.9 mg/day; in the data set with 5/6 nephrectomized rats (setting [9]), 18.4 mg/day; in the data set with 5/6 nephrectomized rats (setting [10]) it was 13.0 mg/day; in the data set with 5/6 nephrectomized rats (setting [11]), 25.1 mg/day. Moreover, the Urinary protein excretion with 5/6 nephrectomized rats (setting [7]) is 114.5 mg/day; with 5/6 nephrectomized rats (setting [8]) it was 117.0 mg/day; with 5/6 nephrectomized rats (setting [9]), 98.2 mg/day; in the data set on 5/6 nephrectomized rats (setting [10]) it was 156.3 mg/day; in the data set with 5/6 nephrectomized rats (setting [11]), 102.8 mg/day. Also, in the data set on hamsters (30 mg/kg oral for two weeks), the “TC (total cholesterol in blood), % of Vehicle” value is listed as 64.1 % of Vehicle. Further, the “TC-HDL … % of Vehicle” value in the data set with hamsters (30 mg/kg oral for two weeks) is given as 68.9 % of Vehicle.
`Cc1ncc2ccc3n(CCCCCNS(=O)(=O)C(F)(F)F)c(=O)c1n23.Cl` [Example 26] had an IC50 in the data set on PDGF-induced contraction of 370 nM. For the same compound, the blood-pressure change in data set [1] (10 mg/kg, after 7 hrs.) is −22 [after 7 hrs.] mmHg. Further, in the data set on hamsters (30 mg/kg oral for two weeks), the “TC (total cholesterol in blood), % of Vehicle” value is on record as 74.5 % of Vehicle and the “TC-HDL … % of Vehicle” value is recorded as 72.1 % of Vehicle.
In the case of `CCS(=O)(=O)NCCCCn1c(=O)c2c(C)ncc3ccc1n32.Cl` [Example 35, 1,2-Dihydro-3-methyl-1-[4-(ethanesulfonamido)butan-1-yl]-1,4,7b-triazacyclopent[cd]inden-2-one.hydrochloride], the blood-pressure change in data set [1] (30 mg/kg, after 2 hrs.) is −14 [after 2 hrs.] mmHg.
With `Cl.O=C1c2cnc3cccc(n23)CN1CCCCCNS(=O)(=O)C(F)(F)F` [Example 8, 4,5-Dihydro-4-[5-(trifluoromethanesulfonamido)pentan-1-yl]-3H-1,4,8b-triazaacenaphthylen-3-one.hydrochloride], the half-maximal inhibitory concentration (IC50) with PDGF-induced contraction came to 310 nM. In addition, in the data set with hamsters (10 mg/kg oral for two weeks), the “TC (total cholesterol in blood), % of Vehicle” value was 81.5 % of Vehicle and the “TC-HDL … % of Vehicle” value is 77.1 % of Vehicle.
